Measurements from patent EP0430485A2, “Quinoline compound” (priority 1989, dated 1991).
Where a name gives a salt, the structure may show the parent alone. Read-outs that look alike come from different tables or passages of the source.

System: scopolamine-induced amnesia
Format: in vivo, Wistar male rats
Method: In order to show effects of the compounds according to the present invention in more detail, a part of experimental examples relating to action against scopolamine-induced amnesia for step-through passive avoidance response in rats is shown below.
Wistar male rats of 7 to 8 weeks old were used to experiment after fasting for 12 hours. Rats were divided into groups with 8 rats per group and 1.5 mg/kg of scopolamine was intraperitoneally administered. After 30 minutes from the administration, rats were placed in a light compartment of a step-through type passive avoidance apparatus constituted by two compartments (25 × 10 × 25 cm of a light compartment and 30 × 30 × 30 cm of a dark compartment having a guillotine door and a floor grid for passing current) and a latent time by entering into a dark compartment was measured. The guillotine door was shut when a rat entered into the dark compartment and shock with 0.6 mA for 3 seconds was applied through the floor grid for acquisition trial. After acquisition trial, 10 mg/kg of each test compound was orally administered to rats and returned to their home cage. After 24 hours, rats were again placed in the light compartment at which the guillotine door was opened, a latent time by entering into the dark compartment was measured whereby presence or absence of improved effect of memory retention was judged.

[1] = rats, scopolamine 1.5 mg/kg intraperitoneally, test compound 10 mg/kg p.o. after acquisition trial, latent time by entering the dark compartment measured after 24 hours, 8 rats per group

Row | Compound | Latent time of memory retention [1] [s] | Latent time of memory retention (rat, in vivo) [s]
1 | Nc1c2c(nc3ccccc13)NCC2 [Example 22, 4-Amino-2,3-dihydro-1H-pyrrolo[2,3-b]quinoline·hydrobromide] | 78 | –
2 | Nc1c2c(nc3cccc(F)c13)N(C(=O)c1ccccc1)CCC2 [Example 26] | 84 | –
3 | CC(=O)N1CCCc2c1nc1cccc(F)c1c2N [Example 24, 1-acetyl-5-amino-6-fluoro-1,2,3,4-tetrahydrobenzo[b] [1,8]naphthylidine] | 168 | –
4 | Nc1c2c(nc3cccc(F)c13)NCCC2 [Example 20, 5-amino-6-fluoro-1,2,3,4-tetrahydrobenzo[d] [1,8]naphthylidine] | 59 | –
5 | Nc1c2c(nc3ccccc13)N(Cc1ccccc1)CCCC2 [Example 10, 6-Amino-1-benzyl-2,3,4,5-tetrahydro-1H-azepino[2,3-b]-quinoline·hydrochloride] | 188 | –
6 | Nc1c2c(nc3cccc(Cl)c13)N(Cc1ccccc1)CCCC2 [Example 11, 6-Amino-1-benzyl-7-chloro-2,3,4,5-tetrahydro-1H-azepino[2,3-b]quinoline·hydrochloride] | 163 | –
7 | CCCCCCCCCCCCN1CCCCc2c1nc1cccc(F)c1c2N [Example 3, 6-amino-1-dodecyl-7-fluoro-2,3,4,5-tetrahydro-1H-azepino[2,3-b]quinoline] | 140 | –
8 | Nc1c2c(nc3ccccc13)CCCC2 [Tacrine, 9-amino-1,2,3,4-tetrahydroacridine, reference compound] | – | 58
9 | CN1CCc2c1nc1ccccc1c2N [Example 1, 4-amino-1-methyl-2,3-dihydro-1H-pyrrolo[2,3-b] quinoline] | 128 | –
10 | Nc1c2c(nc3cc(Cl)ccc13)NCCC2 [Example 31, 5-Amino-8-chloro-1,2,3,4-tetrahydrobenzo[b] [1,8]naphthylidine] | 72 | –
11 | 4-Amino-5-fluoro-1-isoamyl-2,3-dihydro-1H-pyrrolo[2,3-b]quinoline·trihydrate [Example 33] | 151 | –
12 | Nc1c2c(nc3cccc(Cl)c13)NCCC2 [Example 21, 5-amino-6-chloro-1,2,3,4-tetrahydrobenzo[b] [1,8]naphthylidine] | 117 | –
